Results as given in publication PMC2131780, “A Tale of Switched Functions: From Cyclooxygenase Inhibition to M-Channel Modulation in New Diphenylamine Derivatives” (PLoS ONE, 2007).

Legend:
[1] = system: rat DRG neurons; assay: Current-clamp recording of cultured DRG neurons; format: cell-based; conditions: 25 µM
Procedure: For dorsal root ganglion (DRG) neuronal cultures, ganglia were dissected from 2–5 day-old Sprague-Dawley rats killed by decapitation. DRGs were placed in Hank's balanced saline solution (HBSS) and prepared by enzymatic dissociation. Briefly, after 30 min incubation in 5 mg/ml dispase, 2 mg/ml collagenase type 1A and 0.1 mg/ml DNase (Invitrogen/Gibco, Carlsbad, CA) in Ca^2+ and Mg^2+-free HBSS, the ganglia were mechanically triturated with a fire-polished glass Pasteur pipette. The ganglia were then centrifuged for 5 min at 80xg and resuspended in DMEM supplemented with 2 mM L-glutamine, 16.5 mM NaHCO3, 6 g/l glucose, 5 ml penicillin/streptomycin and 10% fetal calf serum. For electrophysiological recording, dissociated neurons were plated on 13 mm glass coverslips, previously coated with poly-D-lysine (1 mg/ml) and laminin (10 µg/ml) and used at 1–2 days in culture.
For current-clamp recordings in primary cultured neurons, the patch pipettes were filled with (in mM): 135 KCl, 1 K2ATP, 1 MgATP, 2 EGTA, 1.1 CaCl2, 5 glucose, 10 HEPES, adjusted with KOH at pH 7.4 (315 mOsm). The external solution contained (in mM): 150 NaCl, 2.5 KCl, 2 CaCl2, 2 MgCl2, 15 glucose, 10 HEPES, adjusted with NaOH at pH 7.4 (325 mOsm). Recordings were sampled at 5 kHz and filtered at 2 KHz via a 4-pole Bessel low pass filter. A liquid junction potential of about −15.6 mV was measured between the intracellular and saline solutions and corrected on-line. For evoking spike discharges, 75–200 pA square depolarizing current pulses were injected into neurons for 400 ms. For rheobase current measurements, 100–1100 pA square depolarizing current pulses were injected into neurons for 2 ms.

[2] = system: MES-induced tonic hind limb extension; assay: Maximal electroshock seizure (MES) model; format: in vivo, mouse; conditions: Mus musculus, ip; mice, intraperitoneal, 30 min before electroshock (0.2 sec, 50 mA); read-out: ED50, protection against tonic extension caused by MES
Procedure: This test is generally thought to be a model of generalized tonic-clonic seizure in human.
The anti-convulsant effect was measured by the maximal electroshock seizure model (MES) in ICR mice as previously described. The procedures followed for experimentation and maintenance of the animals were approved by the animal research ethics committee of Tel Aviv University and in accordance with the Guide for the Care and Use of Laboratory Animals (1996, National Academy of Sciences, Washington DC). Briefly, maximal electroshock was induced in adult mice by means of two transcorneal electrodes delivering an alternative current of 50 mA at 60 Hz for 0.2 sec using rodent shocker (Hugo Sachs Electronik, type 221). […] The drugs dissolved in 0.9% saline were administered intraperitoneally 30 min before the electroshock was performed. Animals failing to show tonic hind limb extension were scored as protected and were expressed in percentage.

[3] = system: COX enzymes (D122 mouse Lewis lung carcinoma cells); assay: COX inhibition, PGE2 production in D122 cells; format: cell-based; conditions: average of two experiments in triplicate
Source text: In addition, the aromatic rings of the diphenylamine moiety were substituted with different electron donating or withdrawing groups. In a first screen, two parameters were checked: (a) the non-selective inhibition of COX-1/COX-2 enzyme activities, measured by the production of PGE2 in cultured mouse colon adenocarcinoma (CT26) and mouse Lewis lung carcinoma cells (D122) cells; (b) the M-channel activity, measured by the heterologous coexpression of Kv7.2 and Kv7.3 subunits in Chinese hamster ovary (CHO) cells.
Mouse colon adenocarcinoma CT26 and mouse Lewis lung carcinoma D122 cells were grown in DMEM (D122) or RPMI (CT26) supplemented with 10% fetal calf serum, 4% glutamine, 1% penicillin-streptomycin-nystatin and 3% non essential amino acids (D122) and maintained in a humidified 37°C incubator with 5% CO2. For the COX assays, cells were grown onto 24 multiwell plates. Before the assay, cells were washed with serum-free medium; then tested compounds were added to the medium and incubated for 30 min at 37°C after which 30 µM arachidonic acid was added and incubated for additional 20 min. At the end of the incubations, 10 µM indomethacin was added to stop the reaction and medium was transferred to another 24 multiwell plate for measuring PGE2 production by radioimmunoassay (DuPont-NEN; Boston, MA) according to manufacturer protocol. Protein determination was assayed on scraped cells and was used to normalize the amount of PGE2 production. Assays with purified ovine COX-1 and human recombinant COX-2 were performed using the COX inhibitor screening assay (Cayman chemical company, Ann Arbor, MI), according to manufacturer protocol.

O=C(Cc1cc([N+](=O)[O-])ccc1Nc1c(Cl)cccc1Cl)OCCO [Compound 15]
hyperpolarization of resting membrane potential, DRG neurons [1]: −8.3±0.2 mV
resting membrane potential of DRG neurons after exposure [1]: −69.0±0.3 mV
rheobase current to generate a single spike, DRG neurons ([1]; 2 ms injection): 577±38 pA
number of evoked action potentials, DRG neurons ([1]; depolarizing current for 400 ms): 0.8±0.3
ED50 [2]: 12 mg/kg
IC50 [3]: 0.229 µM
